Results: the NIST ThermoML archive (doi:10.1021/je049808f)

Assay: cn = amount concentration of the nth substance listed, in mol/dm3
Details: 100 kPa, Liquid

[I-].[NH4+] [ammonium iodide] + CCO
Details | mass density [kg/m3] | viscosity [mPa·s]
298.15 K, c1 = 0.1638 | 804.1 | 1.229
298.15 K, c1 = 0.2289 | 811.7 | 1.275
298.15 K, c1 = 0.3302 | 823.9 | 1.35
298.15 K, c1 = 0.4015 | 832.7 | 1.414
298.15 K, c1 = 0.4696 | 841.1 | 1.495
298.15 K, c1 = 0.6094 | 859.4 | 1.557
298.15 K, c1 = 0.6694 | 867 | 1.598
298.15 K, c1 = 0.7343 | 875.8 | 1.663
298.15 K, c1 = 0.8676 | 894.5 | 1.77
298.15 K, c1 = 0.972 | 908.9 | 1.839
303.15 K, c1 = 0.1629 | 799.8 | 1.12
303.15 K, c1 = 0.2276 | 807.4 | 1.161
303.15 K, c1 = 0.3285 | 819.6 | 1.225
303.15 K, c1 = 0.3994 | 828.4 | 1.284
303.15 K, c1 = 0.4673 | 836.9 | 1.359
303.15 K, c1 = 0.6064 | 855.1 | 1.413
303.15 K, c1 = 0.6661 | 862.7 | 1.454
303.15 K, c1 = 0.7307 | 871.6 | 1.499
303.15 K, c1 = 0.8635 | 890.2 | 1.599
303.15 K, c1 = 0.9674 | 904.7 | 1.674
308.15 K, c1 = 0.162 | 795.5 | 1.048
308.15 K, c1 = 0.2264 | 803.1 | 1.059
308.15 K, c1 = 0.3268 | 815.3 | 1.117
308.15 K, c1 = 0.3974 | 824.1 | 1.165
308.15 K, c1 = 0.4658 | 834.2 | 1.241
308.15 K, c1 = 0.6033 | 850.8 | 1.287
308.15 K, c1 = 0.6628 | 858.4 | 1.327
308.15 K, c1 = 0.7271 | 867.3 | 1.365
308.15 K, c1 = 0.8593 | 885.9 | 1.459
308.15 K, c1 = 0.9628 | 900.4 | 1.544
313.15 K, c1 = 0.1611 | 791.1 | 0.935
313.15 K, c1 = 0.2252 | 798.8 | 0.968
313.15 K, c1 = 0.3251 | 811 | 1.02
313.15 K, c1 = 0.3952 | 819.7 | 1.062
313.15 K, c1 = 0.4634 | 829.3 | 1.1
313.15 K, c1 = 0.6003 | 846.5 | 1.175
313.15 K, c1 = 0.6595 | 854.1 | 1.226
313.15 K, c1 = 0.7235 | 863 | 1.246
313.15 K, c1 = 0.8551 | 881.6 | 1.324
313.15 K, c1 = 0.9582 | 896.1 | 1.388

[I-].[NH4+] [ammonium iodide] + CO
Details | mass density [kg/m3] | viscosity [mPa·s]
298.15 K, c1 = 0.1696 | 807.2 | 0.597
298.15 K, c1 = 0.3281 | 826.3 | 0.628
298.15 K, c1 = 0.4765 | 845.4 | 0.674
298.15 K, c1 = 0.5841 | 859.1 | 0.692
298.15 K, c1 = 0.5862 | 859.4 | 0.688
298.15 K, c1 = 0.7482 | 881.8 | 0.737
298.15 K, c1 = 0.8737 | 899.4 | 0.771
298.15 K, c1 = 0.9947 | 916.9 | 0.802
298.15 K, c1 = 1.105 | 933.34 | 0.836
298.15 K, c1 = 1.209 | 949.2 | 0.865
298.15 K, c1 = 1.334 | 968.4 | 0.903
298.15 K, c1 = 1.417 | 981.5 | 0.93
298.15 K, c1 = 1.507 | 996.2 | 0.96
303.15 K, c1 = 0.1686 | 802.6 | 0.557
303.15 K, c1 = 0.3262 | 821.6 | 0.586
303.15 K, c1 = 0.4739 | 840.8 | 0.628
303.15 K, c1 = 0.581 | 854.5 | 0.648
303.15 K, c1 = 0.7443 | 877.2 | 0.688
303.15 K, c1 = 0.8692 | 894.8 | 0.719
303.15 K, c1 = 0.9897 | 912.3 | 0.749
303.15 K, c1 = 1.099 | 928.8 | 0.781
303.15 K, c1 = 1.203 | 944.6 | 0.809
303.15 K, c1 = 1.327 | 963.8 | 0.847
303.15 K, c1 = 1.41 | 976.9 | 0.868
303.15 K, c1 = 1.5 | 991.6 | 0.898
308.15 K, c1 = 0.1676 | 797.9 | 0.522
308.15 K, c1 = 0.3018 | 813.9 | 0.54
308.15 K, c1 = 0.4712 | 836.1 | 0.587
308.15 K, c1 = 0.5799 | 850.1 | 0.6
308.15 K, c1 = 0.7404 | 872.6 | 0.644
308.15 K, c1 = 0.8647 | 890.2 | 0.682
308.15 K, c1 = 0.9847 | 907.6 | 0.701
308.15 K, c1 = 1.094 | 924.3 | 0.729
308.15 K, c1 = 1.197 | 940 | 0.756
308.15 K, c1 = 1.321 | 959.2 | 0.789
308.15 K, c1 = 1.403 | 972.3 | 0.813
308.15 K, c1 = 1.493 | 987 | 0.84
313.15 K, c1 = 0.1667 | 793.1 | 0.49
313.15 K, c1 = 0.3001 | 809.2 | 0.506
313.15 K, c1 = 0.4686 | 831.4 | 0.551
313.15 K, c1 = 0.5767 | 845.4 | 0.563
313.15 K, c1 = 0.7364 | 867.9 | 0.604
313.15 K, c1 = 0.8602 | 885.5 | 0.631
313.15 K, c1 = 0.9797 | 903 | 0.658
313.15 K, c1 = 1.089 | 920 | 0.685
313.15 K, c1 = 1.191 | 935.4 | 0.71
313.15 K, c1 = 1.315 | 954.6 | 0.741
313.15 K, c1 = 1.397 | 967.7 | 0.763
313.15 K, c1 = 1.486 | 982.4 | 0.788
